Data from ChEMBL document CHEMBL4602617, “Discovery and optimization of heteroaryl piperazines as potent and selective PI3Kδ inhibitors” (Bioorg Med Chem Lett, 2020).

Columns and labels:
[1] = target: Fibroblast growth factor receptor 1 (Homo sapiens, UniProt P11362); assay: Inhibition of recombinant His-tagged human FGFR1 cytoplasmic domain expressed in baculovirus expression system using Tyr 04 peptide as substrate after 1 hr in presence of ATP by Z'-LYTE assay
[2] = Unbound clearance in dog at 0.5 mg/kg, iv or 1 mg/kg, po; assay type: ADME, organism-based, Canis lupus familiaris; conditions: in vivo
[3] = target: Ribosomal protein S6 kinase alpha-4 (Homo sapiens, UniProt O75676); assay: Inhibition of recombinant full length human GST-tagged RPS6KA4 expressed in baculovirus expression system using ser/Thr01 peptide as substrate incubated for 60 mins in presence of ATP by Z'-LYTE assay
[4] = target: Corticotropin-releasing factor receptor 1 (Homo sapiens) (UniProt P34998); assay: Displacement of [125I](Tyr0)-CRF from recombinant full length human recombinant CRF1 expressed in CHO-K1 cells at 10 uM measured after 60 mins by radiometric scintillation analysis relative to control; assay type: cell-based
[5] = target: Mitogen-activated protein kinase 14 (Homo sapiens, UniProt Q16539); assay: Inhibition of recombinant full length GST-tagged human MAPK14 expressed in Escherichia coli using Ser/Thr 04 as substrate after 1 hr in presence of ATP by Z'LYTE assay
[6] = target: AMP-activated protein kinase (AMPK) alpha-1/beta-1/gamma-1 (Homo sapiens, UniProt P54619+Q13131+Q9Y478); assay: Inhibition of recombinant full length GST/His-tagged human AMPK alpha1/beta1/gamma1 expressed in insect cells using Ser/Thr-23 peptide as substrate incubated for 60 mins in presence of ATP by Z'-LYTE assay
Chain of AMP-activated protein kinase (AMPK) alpha-1/beta-1/gamma-1 (P54619 whole entry): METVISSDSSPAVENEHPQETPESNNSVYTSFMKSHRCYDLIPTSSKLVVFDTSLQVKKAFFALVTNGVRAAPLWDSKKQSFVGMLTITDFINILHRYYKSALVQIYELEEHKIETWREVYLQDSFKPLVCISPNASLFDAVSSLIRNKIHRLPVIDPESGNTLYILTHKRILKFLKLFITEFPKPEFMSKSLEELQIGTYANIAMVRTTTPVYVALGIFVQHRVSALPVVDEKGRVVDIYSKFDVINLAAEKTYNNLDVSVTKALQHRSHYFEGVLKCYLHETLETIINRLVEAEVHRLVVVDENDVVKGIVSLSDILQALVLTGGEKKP
Chain of AMP-activated protein kinase (AMPK) alpha-1/beta-1/gamma-1 (Q9Y478 whole entry): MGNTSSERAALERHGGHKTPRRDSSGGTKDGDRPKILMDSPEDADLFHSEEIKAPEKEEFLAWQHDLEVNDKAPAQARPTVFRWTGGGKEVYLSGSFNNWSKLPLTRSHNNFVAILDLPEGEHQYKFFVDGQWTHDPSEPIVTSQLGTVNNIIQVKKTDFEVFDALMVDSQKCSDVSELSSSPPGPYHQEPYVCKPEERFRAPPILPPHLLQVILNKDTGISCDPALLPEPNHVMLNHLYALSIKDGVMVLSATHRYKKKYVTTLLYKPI
Chain of AMP-activated protein kinase (AMPK) alpha-1/beta-1/gamma-1 (Q13131 whole entry): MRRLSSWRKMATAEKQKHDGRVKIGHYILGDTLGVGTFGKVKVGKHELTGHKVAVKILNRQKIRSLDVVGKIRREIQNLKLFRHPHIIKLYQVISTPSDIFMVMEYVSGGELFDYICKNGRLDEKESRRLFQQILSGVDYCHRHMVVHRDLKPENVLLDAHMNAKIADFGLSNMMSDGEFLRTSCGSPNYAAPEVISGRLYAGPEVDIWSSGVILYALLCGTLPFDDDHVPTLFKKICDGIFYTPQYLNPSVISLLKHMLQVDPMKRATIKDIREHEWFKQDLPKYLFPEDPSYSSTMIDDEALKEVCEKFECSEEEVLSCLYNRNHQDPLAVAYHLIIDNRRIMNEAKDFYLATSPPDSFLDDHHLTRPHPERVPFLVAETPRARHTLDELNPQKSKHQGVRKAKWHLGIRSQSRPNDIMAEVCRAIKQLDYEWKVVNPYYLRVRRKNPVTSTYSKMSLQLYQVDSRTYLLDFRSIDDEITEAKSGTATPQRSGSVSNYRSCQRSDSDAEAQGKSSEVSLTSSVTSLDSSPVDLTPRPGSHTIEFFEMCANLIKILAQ

Rattus norvegicus [7] = species: Rattus norvegicus; assay: Displacement of [3H]hemicholinium-3 from choline transporter in Wistar rat striatal membranes at 10 uM after 20 mins by radiometric scintillation analysis relative to control; assay type: cell membranes; conditions: Striatum, Membrane
[8] = target: Voltage-gated inwardly rectifying potassium channel KCNH2 (Homo sapiens, UniProt Q12809); assay: Inhibition of human ERG
[9] = target: Platelet-derived growth factor receptor alpha (Homo sapiens, UniProt P16234, V561D); assay: Inhibition of recombinant human GST-tagged PDGFRalpha V561D mutant cytoplasmic domain expressed in baculovirus expression system using tyrosine-4 peptide as substrate incubated for 60 mins in presence of ATP by Z'-LYTE assay
[10] = target: Peroxisome proliferator-activated receptor gamma (Homo sapiens) (UniProt P37231); assay: Displacement of [3H]rosiglitazone from […] human recombinant PPARgamma LBD domain expressed in insect cells at 10 uM measured after 24 hrs by radiometric scintillation analysis relative to control
Chain of Peroxisome proliferator-activated receptor gamma (Homo sapiens) (P37231 whole entry, the tested form may be a part): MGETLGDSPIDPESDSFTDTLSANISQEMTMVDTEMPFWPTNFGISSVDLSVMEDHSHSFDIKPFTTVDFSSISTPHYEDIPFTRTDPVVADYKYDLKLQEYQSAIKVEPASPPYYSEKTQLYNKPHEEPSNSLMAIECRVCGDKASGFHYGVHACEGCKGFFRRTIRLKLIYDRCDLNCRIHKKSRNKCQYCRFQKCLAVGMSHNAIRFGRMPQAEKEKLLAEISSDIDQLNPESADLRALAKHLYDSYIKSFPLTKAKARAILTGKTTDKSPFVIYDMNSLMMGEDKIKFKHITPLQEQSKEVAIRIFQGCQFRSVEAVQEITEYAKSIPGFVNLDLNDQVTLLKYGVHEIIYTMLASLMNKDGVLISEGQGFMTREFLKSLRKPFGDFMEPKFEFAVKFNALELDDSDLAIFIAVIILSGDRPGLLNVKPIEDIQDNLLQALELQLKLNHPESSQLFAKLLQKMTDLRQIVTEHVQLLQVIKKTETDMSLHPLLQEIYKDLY

[11] = target: Macrophage-stimulating protein receptor (Homo sapiens, UniProt Q04912); assay: Inhibition of recombinant human GST-tagged RON catalytic domain (983 to 1400 residues) expressed in baculovirus expression system using tyrosine-6 peptide as substrate incubated for 60 mins in presence of ATP by Z'-LYTE assay
[12] = target: Proto-oncogene tyrosine-protein kinase receptor Ret (Homo sapiens, UniProt P07949, Y791F); assay: Inhibition of recombinant human GST-tagged RET Y791F mutant cytoplasmic domain expressed in baculovirus expression system using tyr02 peptide as substrate incubated for 60 mins in presence of ATP by Z'-LYTE assay
Chain of Proto-oncogene tyrosine-protein kinase receptor Ret (P07949 29-1114 Y791F limits assumed): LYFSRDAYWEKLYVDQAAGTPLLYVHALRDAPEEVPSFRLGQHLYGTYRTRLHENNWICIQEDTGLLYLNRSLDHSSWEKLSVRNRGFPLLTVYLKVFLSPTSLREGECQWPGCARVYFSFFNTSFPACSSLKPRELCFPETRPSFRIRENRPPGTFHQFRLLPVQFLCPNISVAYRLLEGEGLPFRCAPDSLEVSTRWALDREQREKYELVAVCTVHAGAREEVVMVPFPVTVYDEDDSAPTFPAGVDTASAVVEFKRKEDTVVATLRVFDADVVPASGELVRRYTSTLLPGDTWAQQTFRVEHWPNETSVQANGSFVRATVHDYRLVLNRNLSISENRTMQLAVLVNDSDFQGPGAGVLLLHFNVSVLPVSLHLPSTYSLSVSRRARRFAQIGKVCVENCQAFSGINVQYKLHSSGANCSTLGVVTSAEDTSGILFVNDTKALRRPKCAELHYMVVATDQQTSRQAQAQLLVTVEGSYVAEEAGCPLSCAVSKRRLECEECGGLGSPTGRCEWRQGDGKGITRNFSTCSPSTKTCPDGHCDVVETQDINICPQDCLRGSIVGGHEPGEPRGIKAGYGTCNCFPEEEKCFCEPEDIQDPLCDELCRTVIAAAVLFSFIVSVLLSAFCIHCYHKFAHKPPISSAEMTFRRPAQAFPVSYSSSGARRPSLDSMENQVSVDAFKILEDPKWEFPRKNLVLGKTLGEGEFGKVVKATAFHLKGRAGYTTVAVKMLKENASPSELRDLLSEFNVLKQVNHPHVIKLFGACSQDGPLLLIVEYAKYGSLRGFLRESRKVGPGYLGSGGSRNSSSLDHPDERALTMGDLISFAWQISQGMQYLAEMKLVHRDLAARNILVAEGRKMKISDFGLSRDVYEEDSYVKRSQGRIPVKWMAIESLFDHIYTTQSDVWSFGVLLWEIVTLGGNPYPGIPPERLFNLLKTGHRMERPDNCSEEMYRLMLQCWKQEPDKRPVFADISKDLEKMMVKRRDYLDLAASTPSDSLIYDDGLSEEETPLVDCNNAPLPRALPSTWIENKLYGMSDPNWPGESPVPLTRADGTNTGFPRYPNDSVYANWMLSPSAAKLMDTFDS

[13] = target: GABA-A receptor; anion channel (Rattus norvegicus) (UniProt O09028+P15431+P18506+P18508+P19969+P20236+P23574+P23576+P28471+P28473+P30191+P62813+P63079+P63138+Q91ZM7+Q9ES14); assay: Displacement of [3H]-Ro15-1788 from GABA(A) receptor in Wistar rat hippocampus at 10 uM incubated for 120 mins by radiometric scintillation analysis relative to control; assay type: tissue-based
Rattus norvegicus [14] = species: Rattus norvegicus; assay: Displacement of [3H]GABA from Wistar rat brain GABA at 10 uM after 20 mins by radiometric scintillation analysis relative to control
[15] = target: Receptor tyrosine-protein kinase erbB-2 (Homo sapiens, UniProt P04626); assay: Inhibition of human recombinant ERBB2 (537 to 636 residues) expressed in Escherichia coli using Tyr 06 as substrate after 1 hr in presence of ATP by Z'-LYTE assay
[16] = target: Tyrosine-protein kinase ABL1 (Homo sapiens, UniProt P00519); assay: Inhibition of recombinant full length human His-tagged ABL1 cytoplasmic domain expressed in baculovirus expression system using tyrosine-2 peptide as substrate incubated for 60 mins in presence of ATP by Z'-LYTE assay
Chain of Tyrosine-protein kinase ABL1 (P00519 whole entry, the tested form may be a part): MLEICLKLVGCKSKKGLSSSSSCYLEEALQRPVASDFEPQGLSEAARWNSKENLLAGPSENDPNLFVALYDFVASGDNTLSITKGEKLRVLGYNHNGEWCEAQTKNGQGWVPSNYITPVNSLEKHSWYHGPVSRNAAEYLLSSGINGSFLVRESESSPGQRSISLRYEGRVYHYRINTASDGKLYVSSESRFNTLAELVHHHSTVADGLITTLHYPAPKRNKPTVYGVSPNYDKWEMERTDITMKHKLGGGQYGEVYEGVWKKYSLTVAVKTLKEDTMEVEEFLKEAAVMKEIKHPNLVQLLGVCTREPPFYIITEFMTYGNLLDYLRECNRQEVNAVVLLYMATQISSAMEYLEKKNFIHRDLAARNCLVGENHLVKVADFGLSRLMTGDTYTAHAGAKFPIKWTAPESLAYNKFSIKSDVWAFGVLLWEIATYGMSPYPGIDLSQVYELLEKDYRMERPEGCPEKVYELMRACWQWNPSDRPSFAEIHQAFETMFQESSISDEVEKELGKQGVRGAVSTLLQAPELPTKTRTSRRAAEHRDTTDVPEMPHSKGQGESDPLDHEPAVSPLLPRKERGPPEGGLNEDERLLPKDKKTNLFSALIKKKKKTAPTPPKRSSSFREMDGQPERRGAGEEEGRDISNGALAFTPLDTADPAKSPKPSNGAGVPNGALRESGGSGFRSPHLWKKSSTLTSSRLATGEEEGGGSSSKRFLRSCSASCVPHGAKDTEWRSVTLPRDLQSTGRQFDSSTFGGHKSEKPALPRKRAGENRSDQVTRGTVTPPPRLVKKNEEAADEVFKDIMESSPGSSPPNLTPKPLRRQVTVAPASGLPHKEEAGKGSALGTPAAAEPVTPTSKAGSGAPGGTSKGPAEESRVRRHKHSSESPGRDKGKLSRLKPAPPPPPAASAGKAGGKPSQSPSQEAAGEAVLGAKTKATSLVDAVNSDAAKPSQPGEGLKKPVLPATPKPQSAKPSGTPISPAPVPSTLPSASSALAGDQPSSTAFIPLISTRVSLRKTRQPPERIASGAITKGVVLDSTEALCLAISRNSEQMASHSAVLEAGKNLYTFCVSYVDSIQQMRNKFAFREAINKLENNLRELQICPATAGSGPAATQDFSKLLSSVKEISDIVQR

[17] = target: Serine/threonine-protein kinase PAK 1 (Homo sapiens, UniProt Q13153); assay: Inhibition of recombinant full length human GST-tagged PAK1 expressed in baculovirus expression system using serine/threonine-19 peptide as substrate incubated for 60 mins in presence of ATP by Z'-LYTE assay
Chain of Serine/threonine-protein kinase PAK 1 (Q13153 whole entry): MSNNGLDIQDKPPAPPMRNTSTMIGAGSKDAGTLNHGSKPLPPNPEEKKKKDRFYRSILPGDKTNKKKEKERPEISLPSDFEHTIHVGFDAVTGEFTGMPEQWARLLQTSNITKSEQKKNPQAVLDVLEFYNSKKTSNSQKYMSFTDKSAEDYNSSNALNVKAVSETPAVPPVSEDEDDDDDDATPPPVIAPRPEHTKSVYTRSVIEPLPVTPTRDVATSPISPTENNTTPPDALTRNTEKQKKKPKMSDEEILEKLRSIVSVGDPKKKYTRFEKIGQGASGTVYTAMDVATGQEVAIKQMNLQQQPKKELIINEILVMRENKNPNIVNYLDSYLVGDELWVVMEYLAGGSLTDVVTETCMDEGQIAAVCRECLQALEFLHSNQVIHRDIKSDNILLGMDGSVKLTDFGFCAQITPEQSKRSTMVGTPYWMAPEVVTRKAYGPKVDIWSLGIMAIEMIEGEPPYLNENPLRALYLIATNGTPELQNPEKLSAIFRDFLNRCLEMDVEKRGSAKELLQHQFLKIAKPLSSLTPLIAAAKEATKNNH

[18] = target: Serine/threonine-protein kinase Chk2 (Homo sapiens, UniProt O96017); assay: Inhibition of recombinant human full-length His-tagged CHEK2 expressed in baculovirus expression system using FRET-labeled Ser/Thr 07 peptide as substrate measured after 1 hr in presence of ATP by Z'-lyte assay
Angiopoietin-1 receptor = Angiopoietin-1 receptor (Homo sapiens, UniProt Q02763); assay: Inhibition of recombinant human GST-tagged TIE2 (817 to 1101 residues) expressed in baculovirus expression system using tyrosine-5 peptide as substrate incubated for 60 mins in presence of ATP by Z'-LYTE assay
[19] = target: Tyrosine-protein kinase TXK (Homo sapiens, UniProt P42681); assay: Inhibition of recombinant human GST-tagged TXK catalytic domain (260 to 527 residues) expressed in baculovirus expression system using tyrosine-6 peptide as substrate incubated for 60 mins in presence of ATP by Z'-LYTE assay
[20] = target: Tyrosine-protein kinase JAK2 (Homo sapiens, UniProt O60674); assay: Inhibition of human recombinant N-terminal GST tagged JAK2 JH1 catalytic domain (532 to 1132 residues) expressed in baculovirus expression system using Tyr6 peptide as measured after 1 hr in presence of ATP by Z'-LYTE assay
MAO-B = MAO-B (Homo sapiens, UniProt P27338); assay: Inhibition of recombinant full-length human MAO-B expressed in insect cells at 10 uM using kynuramine as substrate after 60 mins by spectrophotometric analysis relative to control; conditions: probe kynuramine
Chain of MAO-B (P27338 whole entry): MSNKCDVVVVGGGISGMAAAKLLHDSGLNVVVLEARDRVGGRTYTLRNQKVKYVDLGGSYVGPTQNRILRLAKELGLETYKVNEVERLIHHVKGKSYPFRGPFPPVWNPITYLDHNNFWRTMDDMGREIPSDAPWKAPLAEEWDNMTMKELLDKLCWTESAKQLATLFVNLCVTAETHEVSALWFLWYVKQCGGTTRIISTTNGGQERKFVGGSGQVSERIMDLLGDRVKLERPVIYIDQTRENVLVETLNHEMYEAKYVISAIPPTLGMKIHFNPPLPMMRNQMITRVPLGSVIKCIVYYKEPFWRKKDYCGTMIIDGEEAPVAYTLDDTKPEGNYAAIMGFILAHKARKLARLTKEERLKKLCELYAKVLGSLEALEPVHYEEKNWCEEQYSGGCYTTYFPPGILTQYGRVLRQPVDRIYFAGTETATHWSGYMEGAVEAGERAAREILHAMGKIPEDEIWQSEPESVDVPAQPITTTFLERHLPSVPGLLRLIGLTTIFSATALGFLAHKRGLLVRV

[21] = target: Tyrosine-protein kinase Lck (Homo sapiens, UniProt P06239); assay: Inhibition of recombinant full length human His-tagged LCK expressed in baculovirus expression system using tyrosine-2 peptide as substrate incubated for 60 mins in presence of ATP by Z'-LYTE assay
Ephrin type-B receptor 3 = Ephrin type-B receptor 3 (Homo sapiens, UniProt P54753); assay: Inhibition of recombinant human GST-tagged EPHB3 catalytic domain expressed in baculovirus expression system using tyrosine-2 peptide as substrate incubated for 60 mins in presence of ATP by Z'-LYTE assay
[22] = target: Mitogen-activated protein kinase 11 (Homo sapiens, UniProt Q15759); assay: Inhibition of recombinant full length human His-tagged p38beta expressed in baculovirus expression system using serine/threonine-15 peptide as substrate incubated for 60 mins in presence of ATP by Z'-LYTE assay

## C[C@@H]1C[C@H]1C(=O)N1CCN(c2cnc(C#N)c(-c3cnn(C)c3)n2)C[C@H]1C
[1]
  IC50: > 100 µM
[2]
  CL free: 37 mL/min/kg
[3]
  IC50: > 100 µM
[4]
  inhibition: 6%
[5]
  IC50: > 100 µM
[6]
  IC50: > 100 µM
Rattus norvegicus [7]
  inhibition: -8%
[8]
  IC50: 23 µM
[9]
  IC50: > 100 µM
[10]
  inhibition: 7%
[11]
  IC50: > 100 µM
[12]
  IC50: > 100 µM
[13]
  inhibition: -3%
Rattus norvegicus [14]
  inhibition: 18%
[15]
  IC50: > 100 µM
[16]
  IC50: > 100 µM
[17]
  IC50: > 100 µM
[18]
  IC50: > 100 µM
Angiopoietin-1 receptor
  IC50: > 100 µM
[19]
  IC50: > 100 µM
[20]
  IC50: > 100 µM
MAO-B
  inhibition at 1 h, 10 µM: 11%
[21]
  IC50: > 100 µM
Ephrin type-B receptor 3
  IC50: > 100 µM
[22]
  IC50: > 100 µM
